Values quoted from earlier work in US20080279967A1, “Composition and method for increasing the metabolism of free fatty acids and facilitating a favorable blood lipid” (priority 2007, published 2008).

Tested on: rats
Conditions: administration to rats

C[N+](C)(C)CCCC(=O)[O-] [γ-butyrobetaine, 4-trimethylamniobutyrate]
nitric oxide concentrations in blood: increases | vasodilating activities: elevated
